Data on eleven molecules can be found in patent US9605004B2, “Chemical compounds” (SYNGENTA LIMITED, priority 2013, dated 2017).

Experiment [1] has as its system a variety of test species. Description: Pre-emergence herbicidal activity (Example 8a, Table 2). The format is in vivo. Also on record: key: 0 = no damage to plant, 5 = total damage to plant. Particulars: application pre-emergence, rate 1000 g/ha, evaluated after 13 days. On the procedure:
Seeds of a variety of test species were sown in standard soil in pots. After cultivation for one day (pre-emergence) under controlled conditions in a glasshouse (at 24/16° C., day/night; 14 hours light; 65% humidity), the plants were sprayed with an aqueous spray solution derived from the formulation of the technical active ingredient in acetone/water (50:50) solution containing 0.5% Tween 20 (polyoxyethelyene sorbitan monolaurate, CAS RN 9005-64-5). The test plants were then grown in a glasshouse under controlled conditions (at 24/16° C., day/night; 14 hours light; 65% humidity) and watered twice daily. After 13 days, the test was evaluated (5=total damage to plant; 0=no damage to plant).

For experiment [2], the system named is a variety of test species. Kind of experiment: Post-emergence herbicidal activity (Example 8b, Table 3). The format is in vivo. The settings on record: application post-emergence, rate 1000 g/ha, evaluated after 13 days, scale 0-5; for Herbicidal damage score, ABUTH: Abutilon theophrasti; for Herbicidal damage score, ALOMY: Alopecurus myosuroides; for Herbicidal damage score, AMARE: Amaranthus retroflexus; for Herbicidal damage score, ECHCG: Echinochloa crus-galli; for Herbicidal damage score, SETFA: Setaria faberi; for Herbicidal damage score, ZEAMX: Zea mays. On the procedure:
Seeds of a variety of test species were sown in standard soil in pots. After 8 days cultivation (post-emergence) under controlled conditions in a glasshouse (at 24/16° C., day/night; 14 hours light; 65% humidity), the plants were sprayed with an aqueous spray solution derived from the formulation of the technical active ingredient in acetone/water (50:50) solution containing 0.5% Tween 20 (polyoxyethelyene sorbitan monolaurate, CAS RN 9005-64-5). The test plants were then grown in a glasshouse under controlled conditions (at 24/16° C., day/night; 14 hours light; 65% humidity) and watered twice daily. After 13 days, the test was evaluated (5=total damage to plant; 0=no damage to plant).

With `CCOC(c1cc(N2C(=O)C(Cl)=C(C)C2O)nn1C)C(C)(C)C` (mixture of isomers) [Compound B34], in experiment [1], the “Pre-emergence herbicidal activity, damage score ABUTH” value is given as 4; the “Pre-emergence herbicidal activity, damage score ALOMY” value amounted to 2; the “Pre-emergence herbicidal activity, damage score AMARE” value is 2; the “Pre-emergence herbicidal activity, damage score ECHCG” value is reported as 3. Further, in experiment [1], the “Pre-emergence herbicidal activity, damage score SETFA” value stood at 1 and the “Pre-emergence herbicidal activity, damage score ZEAMX” value is 1. In addition, in experiment [2], the “Herbicidal damage score, ABUTH” value was 5; the “Herbicidal damage score, ALOMY” value is recorded as 3; the “Herbicidal damage score, AMARE” value is reported as 2; the “Herbicidal damage score, ECHCG” value worked out at 3. In experiment [2], the “Herbicidal damage score, SETFA” value was 3 and the “Herbicidal damage score, ZEAMX” value worked out at 0.
In the case of `CC1=C(Cl)C(=O)N(c2cc(C(F)C(C)(C)C)n(C)n2)C1O` (mixture of isomers) [Compound B37], in experiment [1], the “Pre-emergence herbicidal activity, damage score ABUTH” value turned out to be 4; the “Pre-emergence herbicidal activity, damage score ALOMY” value came out at 3; the “Pre-emergence herbicidal activity, damage score AMARE” value is on record as 5; the “Pre-emergence herbicidal activity, damage score ECHCG” value turned out to be 3. In experiment [1], the “Pre-emergence herbicidal activity, damage score SETFA” value was determined as 4 and the “Pre-emergence herbicidal activity, damage score ZEAMX” value came to 3. Moreover, in experiment [2], the “Herbicidal damage score, ABUTH” value was 4; the “Herbicidal damage score, ALOMY” value is reported as 5; the “Herbicidal damage score, AMARE” value worked out at 5; the “Herbicidal damage score, ECHCG” value is 5. Moreover, in experiment [2], the “Herbicidal damage score, SETFA” value was found to be 5 and the “Herbicidal damage score, ZEAMX” value turned out to be 4.
With `CC1=C(Cl)C(=O)N(c2cc(C(C)(F)C(C)(C)C)n(C)n2)C1O` (mixture of isomers) [Compound B40], in experiment [1], the “Pre-emergence herbicidal activity, damage score ABUTH” value turned out to be 5; the “Pre-emergence herbicidal activity, damage score ALOMY” value is on record as 1; the “Pre-emergence herbicidal activity, damage score AMARE” value is listed as 3; the “Pre-emergence herbicidal activity, damage score ECHCG” value was 2. Also, in experiment [1], the “Pre-emergence herbicidal activity, damage score SETFA” value is 3 and the “Pre-emergence herbicidal activity, damage score ZEAMX” value came to 0. Besides, in experiment [2], the “Herbicidal damage score, ABUTH” value was 5; the “Herbicidal damage score, ALOMY” value was 4; the “Herbicidal damage score, AMARE” value is reported as 5; the “Herbicidal damage score, ECHCG” value came out at 5. Moreover, in experiment [2], the “Herbicidal damage score, SETFA” value turned out to be 5 and the “Herbicidal damage score, ZEAMX” value was determined as 1.
For the molecule `CC1=C(Cl)C(=O)N(c2cc(C(C)c3ccccc3)n(C)n2)C1O` (mixture of isomers) [Compound B41], in experiment [1], the “Pre-emergence herbicidal activity, damage score ABUTH” value turned out to be 4; the “Pre-emergence herbicidal activity, damage score ALOMY” value was 3; the “Pre-emergence herbicidal activity, damage score AMARE” value came to 2; the “Pre-emergence herbicidal activity, damage score ECHCG” value is reported as 4. Moreover, in experiment [1], the “Pre-emergence herbicidal activity, damage score SETFA” value was determined as 4 and the “Pre-emergence herbicidal activity, damage score ZEAMX” value worked out at 2. In experiment [2], the “Herbicidal damage score, ABUTH” value turned out to be 5; the “Herbicidal damage score, ALOMY” value came to 5; the “Herbicidal damage score, AMARE” value is on record as 4; the “Herbicidal damage score, ECHCG” value was 5. Moreover, in experiment [2], the “Herbicidal damage score, SETFA” value is given as 5 and the “Herbicidal damage score, ZEAMX” value is listed as 2.
As for `CC1=C(Cl)C(=O)N(c2cc([S+](C)[O-])n(C)n2)C1O` (mixture of isomers) [Compound B46], in experiment [1], the “Pre-emergence herbicidal activity, damage score ABUTH” value was 5; the “Pre-emergence herbicidal activity, damage score ALOMY” value worked out at 3; the “Pre-emergence herbicidal activity, damage score AMARE” value was determined as 5; the “Pre-emergence herbicidal activity, damage score ECHCG” value was determined as 4. In experiment [1], the “Pre-emergence herbicidal activity, damage score SETFA” value is on record as 4 and the “Pre-emergence herbicidal activity, damage score ZEAMX” value amounted to 1. In experiment [2], the “Herbicidal damage score, ABUTH” value came out at 5; the “Herbicidal damage score, ALOMY” value is 4; the “Herbicidal damage score, AMARE” value worked out at 5; the “Herbicidal damage score, ECHCG” value was 5. Moreover, in experiment [2], the “Herbicidal damage score, SETFA” value worked out at 5 and the “Herbicidal damage score, ZEAMX” value is 4.
In the case of `CCC1CCn2nc(N3C(=O)C(Cl)=C(C)C3O)cc21` (mixture of isomers) [Compound C10], in experiment [1], the “Pre-emergence herbicidal activity, damage score ABUTH” value was determined as 4; the “Pre-emergence herbicidal activity, damage score ALOMY” value turned out to be 4; the “Pre-emergence herbicidal activity, damage score AMARE” value is 5; the “Pre-emergence herbicidal activity, damage score ECHCG” value is recorded as 4. For the same molecule, in experiment [1], the “Pre-emergence herbicidal activity, damage score SETFA” value was 5 and the “Pre-emergence herbicidal activity, damage score ZEAMX” value is 2. Besides, in experiment [2], the “Herbicidal damage score, ABUTH” value was found to be 5; the “Herbicidal damage score, ALOMY” value came out at 4; the “Herbicidal damage score, AMARE” value is given as 5; the “Herbicidal damage score, ECHCG” value came to 5. Besides, in experiment [2], the “Herbicidal damage score, SETFA” value is recorded as 5 and the “Herbicidal damage score, ZEAMX” value is recorded as 4.
With `CC1=C(Cl)C(=O)N(c2cc3n(n2)CCC3C)C1O` (mixture of isomers) [Compound G1], in experiment [1], the “Pre-emergence herbicidal activity, damage score ABUTH” value amounted to 5; the “Pre-emergence herbicidal activity, damage score ALOMY” value stood at 4; the “Pre-emergence herbicidal activity, damage score AMARE” value was 5; the “Pre-emergence herbicidal activity, damage score ECHCG” value worked out at 5. In addition, in experiment [1], the “Pre-emergence herbicidal activity, damage score SETFA” value came out at 4 and the “Pre-emergence herbicidal activity, damage score ZEAMX” value amounted to 3. In addition, in experiment [2], the “Herbicidal damage score, ABUTH” value turned out to be 5; the “Herbicidal damage score, ALOMY” value was determined as 5; the “Herbicidal damage score, AMARE” value was found to be 5; the “Herbicidal damage score, ECHCG” value is 5. In experiment [2], the “Herbicidal damage score, SETFA” value was determined as 5 and the “Herbicidal damage score, ZEAMX” value is recorded as 5.
For `CCC1CCCn2nc(N3C(=O)C(Cl)=C(C)C3O)cc21` (mixture of isomers) [Compound G5], in experiment [1], the “Pre-emergence herbicidal activity, damage score ABUTH” value was found to be 5; the “Pre-emergence herbicidal activity, damage score ALOMY” value amounted to 3; the “Pre-emergence herbicidal activity, damage score AMARE” value is recorded as 5; the “Pre-emergence herbicidal activity, damage score ECHCG” value amounted to 5. For the same molecule, in experiment [1], the “Pre-emergence herbicidal activity, damage score SETFA” value was found to be 4 and the “Pre-emergence herbicidal activity, damage score ZEAMX” value worked out at 1. Also, in experiment [2], the “Herbicidal damage score, ABUTH” value was determined as 5; the “Herbicidal damage score, ALOMY” value came to 4; the “Herbicidal damage score, AMARE” value is on record as 5; the “Herbicidal damage score, ECHCG” value was 5. In addition, in experiment [2], the “Herbicidal damage score, SETFA” value stood at 5 and the “Herbicidal damage score, ZEAMX” value came to 5.
`CC1=C(Cl)C(=O)N(c2cc3n(n2)CCC3C)C1O` (mixture of isomers) [Compound G6]: in experiment [1], the “Pre-emergence herbicidal activity, damage score ABUTH” value came out at 5; the “Pre-emergence herbicidal activity, damage score ALOMY” value worked out at 4; the “Pre-emergence herbicidal activity, damage score AMARE” value was found to be 5; the “Pre-emergence herbicidal activity, damage score ECHCG” value was determined as 5. In experiment [1], the “Pre-emergence herbicidal activity, damage score SETFA” value is given as 4 and the “Pre-emergence herbicidal activity, damage score ZEAMX” value worked out at 3. In experiment [2], the “Herbicidal damage score, ABUTH” value turned out to be 5; the “Herbicidal damage score, ALOMY” value is recorded as 5; the “Herbicidal damage score, AMARE” value is recorded as 5; the “Herbicidal damage score, ECHCG” value stood at 5. In experiment [2], the “Herbicidal damage score, SETFA” value came to 5 and the “Herbicidal damage score, ZEAMX” value came to 5.
Take `CCC1CCCn2nc(N3C(=O)C(Cl)=C(C)C3O)cc21` (mixture of isomers) [Compound G7]: in experiment [1], the “Pre-emergence herbicidal activity, damage score ABUTH” value came to 5; the “Pre-emergence herbicidal activity, damage score ALOMY” value turned out to be 3; the “Pre-emergence herbicidal activity, damage score AMARE” value is given as 5; the “Pre-emergence herbicidal activity, damage score ECHCG” value was 5. Moreover, in experiment [1], the “Pre-emergence herbicidal activity, damage score SETFA” value turned out to be 4 and the “Pre-emergence herbicidal activity, damage score ZEAMX” value is listed as 1. Further, in experiment [2], the “Herbicidal damage score, ABUTH” value is listed as 5; the “Herbicidal damage score, ALOMY” value worked out at 4; the “Herbicidal damage score, AMARE” value amounted to 5; the “Herbicidal damage score, ECHCG” value worked out at 5. Further, in experiment [2], the “Herbicidal damage score, SETFA” value was found to be 5 and the “Herbicidal damage score, ZEAMX” value was 5.
With `CC1=C(Cl)C(=O)N(c2cc3n(n2)CC[S+]([O-])C3(C)C)C1O` (mixture of isomers) [Compound G12], in experiment [1], the “Pre-emergence herbicidal activity, damage score ABUTH” value came to 4; the “Pre-emergence herbicidal activity, damage score ALOMY” value was determined as 3; the “Pre-emergence herbicidal activity, damage score AMARE” value was 4; the “Pre-emergence herbicidal activity, damage score ECHCG” value is reported as 4. For the same molecule, in experiment [1], the “Pre-emergence herbicidal activity, damage score SETFA” value is 3 and the “Pre-emergence herbicidal activity, damage score ZEAMX” value was found to be 3. In experiment [2], the “Herbicidal damage score, ABUTH” value is 4; the “Herbicidal damage score, ALOMY” value stood at 3; the “Herbicidal damage score, AMARE” value turned out to be 4; the “Herbicidal damage score, ECHCG” value worked out at 4. Besides, in experiment [2], the “Herbicidal damage score, SETFA” value worked out at 3 and the “Herbicidal damage score, ZEAMX” value was determined as 1.
